Literature values as cited in patent US20240101584A1, “TARGETED DELIVERY OF 1,2,4,5 TETRAOXANE COMPOUNDS AND THEIR USES” (Westlake University, priority 2021, published 2024).

Key:
HCT116 cells = conditions: reported data of known compounds; cited from earlier work
HL-60 cells = conditions: cited from earlier work; for IC50: reported data of known compounds
MDA-MB-231 cells = conditions: reported data of known compounds; cited from earlier work
Hela cells = conditions: reported compound in the literature; read-out: overall IC50, Hela cells, reported compound; cited from earlier work
PMBC = conditions: reported compound in the literature; cited from earlier work
HEK293 cells = conditions: reported compound in the literature; read-out: overall IC50, HEK293 cells, reported compound; cited from earlier work
HepG2 cells = conditions: reported compound in the literature; read-out: overall IC50, HepG2 cells, reported compound; cited from earlier work

For `CC(C)(N)CNC(=O)C[C@H]1CC[C@]2(CC1)OO[C@]1(O2)C2CC3CC(C2)CC1C3` [OZ277], the IC50 (HCT116 cells) is given as 68.3 µM, the IC50 (HL-60 cells) is given as 53.8 µM and the IC50 (MDA-MB-231 cells) is given as 35.2 µM.
For `CN1CCN(C2CCN(C(=O)CC3CCC4(CC3)OOC3(OO4)C4CC5CC(C4)CC3C5)CC2)CC1` (stereo not drawn) [RKA182], the IC50 (Hela cells) is given as over 12 µM, the IC50 (PMBC) is given as 46.6 ± 0.7 µM and the IC50 (HEK293 cells) is given as over 12 µM. For the same compound, the “best selectivity index (PMBC versus HL-60)” value (HL-60 cells; reported compound in the literature) was 4, the IC50 (HL-60 cells) was 11.6 ± 0.4 µM and the IC50 (HepG2 cells) was over 12 µM.
